For assay [1], the system named is P. aeruginosa ATCC 27853. The assay is described as follows: microbe, parasite or virus in culture. It is filed as cell-based. The conditions noted are these: ATCC 27853, 24 h. A digest of the protocol:
(§1)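 Peptides two-fold diluted in Mueller-Hinton Broth (0.0976–50 μg/ml final) against 10^5–10^6 CFU/ml inoculum, 37 °C for 24 h with OD600 monitored every 30 min. MIC = lowest concentration with no visible growth; two independent duplicates.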

Assay [2] deals with P. aeruginosa ATCC 27853. It is filed as cell-based. The conditions noted are these: ATCC 27853; for Fractional inhibitory concentration of peptide/PMB, combination with Genta: first number in parenthesis; for Fractional inhibitory concentration of antibiotic, Genta combination: second number in parenthesis. A digest of the protocol: (§2)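 Checkerboard combinations of peptide and antibiotic, each 2-fold diluted up to 1× MIC in MHB, were tested against ~10^6 CFU/ml final inoculum. Plates were incubated 24 h at 37 °C, with growth read at OD600. FICI was the sum of the combination-to-alone MIC ratios for each agent, and the lowest FICI from duplicate experiments was reported.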

A further assay relates to P. aeruginosa DR4877/07. The class given is cell-based. Conditions: for Fractional inhibitory concentration of peptide/PMB, combination with Chloarm / Fractional inhibitory concentration of peptide/PMB, combination with Erythro / Fractional inhibitory concentration of peptide/PMB, combination with Levo / Fractional inhibitory concentration of peptide/PMB, combination with Tobra: first number in parenthesis; for Fractional inhibitory concentration of antibiotic, Chloarm combination / Fractional inhibitory concentration of antibiotic, Erythro combination / Fractional inhibitory concentration of antibiotic, Levo combination / Fractional inhibitory concentration of antibiotic, Tobra combination: second number in parenthesis. A digest of the protocol: as §2

The test system of the next assay is P. aeruginosa ATCC 9027. The assay can be described thus: Outer membrane permeability assay (NPN). The class given is cell-based. The conditions noted are these: no unit in table; Fig. S5 axis [Peptide], μM; 10 μM NPN, 5 mM HEPES pH 7.4, ex 355/em 405 nm; average of two titrations; read-out: PC50 (peptide concentration for half-maximal NPN intensity, OM permeability). The procedure, abridged: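 Overnight MHB-grown cells were washed and resuspended in 5 mM HEPES pH 7.4 to OD600 0.200, then loaded with 10 μM NPN (final), with peptide titrated in after dye stabilization. Fluorescence ex 355/em 405 nm; PC50 is the peptide concentration giving half-maximal intensity, from a sigmoidal fit averaged over two titrations.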

The subject of assay [3] is LPS (E. coli serotype 055:B5). The assay can be described thus: BODIPY TR cadaverine (BC) displacement assay with LPS. The conditions noted are these: no unit in table; ED50 values in μM; 5 mM HEPES pH 7.4; duplicates; read-out: BC50 (LPS binding). It is filed as binding. The procedure, abridged:
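Peptides (0.02–25.6 μM, two-fold dilutions) mixed 1:1 with BODIPY TR cadaverine:LPS (E. coli 055:B5) mixture in 5 mM HEPES pH 7.4; fluorescence at 580/620 nm. Displacement normalized to polymyxin B (Fmax) and probe:LPS alone (F0); ED50 from curve fit, duplicates.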

The test system of the next assay is K. pneumonia 4299. The assay can be described thus: microbe, parasite or virus in culture. The conditions noted are these: 24 h. It is filed as cell-based, K. pneumoniae. A digest of the protocol: as §1
A further assay relates to P. aeruginosa 23155. It is filed as cell-based. Conditions: 23155, 24 h. The procedure, abridged: as §1
The subject of another assay is K. pneumoniae ATCC10031. It is filed as cell-based. The conditions noted are these: ATCC10031, 24 h. The procedure, abridged: as §1

Positions of bridges follow the written chain, without caps; N, C: chain ends. Residues, ends and D or L forms follow the SMILES beside them. Chains are numbered I, II in the order given.

As to `CC(C)C[C@H](NC(=O)[C@H](CCCCN)NC(=O)[C@H](CCCNC(=N)N)NC(=O)CNC(=O)[C@@H](N)CCCNC(=N)N)C(=O)N[C@@H](CC(C)C)C(=O)N[C@@H](CCCNC(=N)N)C(=O)N[C@@H](CCCNC(=N)N)C(=O)NCCCC[C@H](NC(=O)[C@H](CCCNC(=N)N)NC(=O)[C@H](CCCNC(=N)N)NC(=O)[C@H](CC(C)C)NC(=O)[C@H](CC(C)C)NC(=O)[C@H](CCCCN)NC(=O)[C@H](CCCNC(=N)N)NC(=O)CNC(=O)[C@@H](N)CCCNC(=N)N)C(=O)N[C@@H](CCCCN)C(=O)O` (I: H-RGRKLLRRKK-OH / II: H-RGRKLLRR; amide I:9-II:C; N-terminus and C-terminus assumed), the “Minimum Inhibitory Concentration against P. aeruginosa ATCC 27853” value with P. aeruginosa ATCC 27853 [1] amounted to 2.7 µM. Moreover, in the assay on P. aeruginosa ATCC 27853 [2], the “Fractional inhibitory concentration of peptide/PMB, combination with Genta” value is reported as “(0.25,0.25)” and the “Fractional inhibitory concentration of antibiotic, Genta combination” value is recorded as “(0.25,0.25)”. Also, in the assay with P. aeruginosa DR4877/07, the “Fractional inhibitory concentration of peptide/PMB, combination with Chloarm” value is 0.25; the “Fractional inhibitory concentration of peptide/PMB, combination with Erythro” value is on record as “(0.5,0.5)”; the “Fractional inhibitory concentration of peptide/PMB, combination with Levo” value was found to be 0.5; the “Fractional inhibitory concentration of peptide/PMB, combination with Tobra” value is “(0.25,0.25)”. Moreover, in the assay with P. aeruginosa DR4877/07, the “Fractional inhibitory concentration of antibiotic, Chloarm combination” value worked out at 0.13; the “Fractional inhibitory concentration of antibiotic, Erythro combination” value is given as “(0.5,0.5)”; the “Fractional inhibitory concentration of antibiotic, Levo combination” value is given as 0.06; the “Fractional inhibitory concentration of antibiotic, Tobra combination” value was “(0.25,0.25)”. Also, in the assay with P. aeruginosa ATCC 9027, the EC50 came out at 17.5 ± 0.4 µM. Moreover, the EC50 in assay [3] turned out to be 1.47 ± 0.02 µM. For the same compound, in the assay with K. pneumonia 4299, the “Minimum Inhibitory Concentration against K. pneumonia 4299” value is 5.3 µM. Besides, the “Minimum Inhibitory Concentration against P. aeruginosa 23155” value in the assay with P. aeruginosa 23155 was determined as 2.7 µM. Besides, the “Minimum Inhibitory Concentration against K. pneumoniae ATCC10031” value with K. pneumoniae ATCC10031 stood at 5.3 µM.

On to `C[C@H](NC(=O)[C@H](C)NC(=O)[C@H](CCCCN)NC(=O)[C@H](CCCNC(=N)N)NC(=O)CNC(=O)[C@@H](N)CCCNC(=N)N)C(=O)N[C@@H](CCCNC(=N)N)C(=O)N[C@@H](CCCNC(=N)N)C(=O)NCCCC[C@H](NC(=O)[C@H](CCCNC(=N)N)NC(=O)[C@H](CCCNC(=N)N)NC(=O)[C@H](C)NC(=O)[C@H](C)NC(=O)[C@H](CCCCN)NC(=O)[C@H](CCCNC(=N)N)NC(=O)CNC(=O)[C@@H](N)CCCNC(=N)N)C(=O)N[C@@H](CCCCN)C(=O)O` (I: H-RGRKAARRKK-OH / II: H-RGRKAARR; amide I:9-II:C; N-terminus and C-terminus assumed), for which the “Minimum Inhibitory Concentration against P. aeruginosa ATCC 27853” value in the assay with P. aeruginosa ATCC 27853 [1] amounted to 11.5 µM. For the same compound, in the assay on P. aeruginosa ATCC 27853 [2], the “Fractional inhibitory concentration of peptide/PMB, combination with Genta” value came out at 0.5 and the “Fractional inhibitory concentration of antibiotic, Genta combination” value worked out at 0.06. In addition, in the assay with P. aeruginosa DR4877/07, the “Fractional inhibitory concentration of peptide/PMB, combination with Chloarm” value is given as 0.5; the “Fractional inhibitory concentration of peptide/PMB, combination with Erythro” value was “(0.5,0.5)”; the “Fractional inhibitory concentration of peptide/PMB, combination with Levo” value is reported as 0.5; the “Fractional inhibitory concentration of peptide/PMB, combination with Tobra” value is recorded as 0.5. For the same compound, in the assay with P. aeruginosa DR4877/07, the “Fractional inhibitory concentration of antibiotic, Chloarm combination” value came out at 0.13; the “Fractional inhibitory concentration of antibiotic, Erythro combination” value is recorded as “(0.5,0.5)”; the “Fractional inhibitory concentration of antibiotic, Levo combination” value is listed as 0.25; the “Fractional inhibitory concentration of antibiotic, Tobra combination” value is recorded as 0.25. Further, the EC50 in the assay on P. aeruginosa ATCC 9027 amounted to 21.7 ± 0.8 µM. Also, in assay [3], the EC50 is 2.1 ± 0.2 µM. The “Minimum Inhibitory Concentration against K. pneumonia 4299” value in the assay on K. pneumonia 4299 came to 23 µM. For the same compound, the “Minimum Inhibitory Concentration against P. aeruginosa 23155” value with P. aeruginosa 23155 turned out to be 11.5 µM. Further, the “Minimum Inhibitory Concentration against K. pneumoniae ATCC10031” value in the assay with K. pneumoniae ATCC10031 is 11.5 µM.

The record behind these values is publication PMC4865820, “Branched Peptide, B2088, Disrupts the Supramolecular Organization of Lipopolysaccharides and Sensitizes the Gram-negative Bacteria” (Scientific Reports, 2016).
